The values below are quoted from earlier work in patent US20140316333A1, “DISSOLVING SOLID SOLUTION PERFORATOR PATCH FOR MIGRAINE TREATMENT” (priority 2011, published 2014).

For this data set the following is noted: oral dosage.

Regarding `CN1C[C@H](C(=O)N[C@]2(C)O[C@@]3(O)[C@@H]4CCCN4C(=O)[C@H](Cc4ccccc4)N3C2=O)C[C@@H]2c3cccc4[nH]cc(c34)C[C@H]21` [DHE, dihydroergotamine], the “time to have efficacy for reducing migraine headache” value was 2 to 3 h. In addition, for the setting “about 20-30 mg, estimated”, the “active unchanged drug that reaches the blood stream” value is 2-10%.
